Reference: PubChem BioAssay (NCI)
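Protocol summary: plate cells (96-well), add compound at 5 concentrations, incubate 48 h, interpolate endpoints linearly. Definition used: TGI = concentration required for complete inhibition of growth.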

Tests used:
Assay in all cases: inhibition of tumour cell growth, NCI panel, 48 h
[1] = test system: HCT-15 colon
[2] = test system: NCI-H226 lung
[3] = test system: DMS 114 small cell lung
[4] = test system: SF-268 CNS
[5] = test system: M19-MEL melanoma
[6] = test system: SNB-78 CNS
[7] = test system: SN12C renal
[8] = test system: K-562 leukemia
[9] = test system: TK-10 renal
[10] = test system: KM20L2 colon
[11] = test system: NCI-H522 lung
[12] = test system: CCRF-CEM leukemia

For CCSC(=O)C1(C)OC2CCCCC2C1=O (stereo not given), the TGI [1] was > 100 µM, the TGI [2] was > 100 µM and the TGI [3] was > 100 µM. For the same compound, the TGI [4] was > 100 µM, the TGI [5] was > 100 µM and the TGI [6] was > 100 µM. For the same compound, the TGI [7] was > 100 µM, the TGI [8] was > 100 µM and the TGI [9] was > 100 µM. For the same compound, the TGI [10] was > 100 µM, the TGI [11] was > 100 µM and the TGI [12] was > 100 µM.
With CCOC(=O)/C=C1\Oc2ccccc2C1(C)O (stereo not given) the TGI [1] was > 100 µM, the TGI [2] was > 100 µM and the TGI [3] was > 100 µM. The TGI [4] was > 100 µM, the TGI [5] was > 100 µM and the TGI [6] was > 100 µM. The TGI [7] was > 100 µM, the TGI [8] was > 100 µM and the TGI [9] was > 100 µM. For the same compound, the TGI [10] was > 100 µM, the TGI [11] was > 100 µM and the TGI [12] was > 100 µM.
Cc1ccc(Nc2nc(C)c(C(/C=C/c3ccc4c(c3)OCO4)=N/Nc3ccc([N+](=O)[O-])cc3[N+](=O)[O-])s2)c([N+](=O)[O-])c1 was tested, and the TGI [1] was > 100 µM, the TGI [2] was 90.1 µM and the TGI [3] was > 100 µM. The TGI [4] was > 100 µM, the TGI [5] was > 100 µM and the TGI [6] was > 100 µM. The TGI [7] was > 100 µM, the TGI [8] was > 100 µM and the TGI [9] was > 100 µM. The TGI [10] was > 100 µM, the TGI [11] was 37.4 µM and the TGI [12] was > 100 µM.
For O=c1cc(-c2ccc(O)cc2)oc2cc(O)cc(O)c12, the TGI [1] was > 100 µM, the TGI [2] was 75.9 µM and the TGI [3] was > 100 µM. For the same compound, the TGI [4] was 83.9 µM, the TGI [5] was > 100 µM and the TGI [6] was 39.5 µM. For the same compound, the TGI [7] was > 100 µM, the TGI [8] was > 100 µM and the TGI [9] was > 100 µM. For the same compound, the TGI [10] was 88.2 µM, the TGI [11] was 64.5 µM and the TGI [12] was > 100 µM.
COc1ccc(/C(C#N)=C(/N)SCc2ccccc2Cl)cc1 was tested, and the TGI [2] was 33.3 µM, the TGI [3] was 37.1 µM and the TGI [4] was 33.2 µM. For the same compound, the TGI [5] was 40.6 µM, the TGI [6] was 64.2 µM and the TGI [7] was 91.3 µM. It also gave a TGI [8] of 49.5 µM, a TGI [9] of 94.7 µM and a TGI [10] of 34.3 µM. For the same compound, the TGI [11] was 27.4 µM and the TGI [12] was > 100 µM.
In the case of COc1cc2nncc(SCc3ccc(Cl)c(Cl)c3)c2cc1OC, the TGI [1] is reported as > 100 µM, the TGI [2] is reported as > 100 µM and the TGI [3] is reported as > 100 µM. The TGI [4] was > 100 µM, the TGI [5] was > 100 µM and the TGI [6] was > 100 µM. The TGI [7] was > 100 µM, the TGI [8] was > 100 µM and the TGI [9] was > 100 µM. The TGI [10] was > 100 µM, the TGI [11] was > 100 µM and the TGI [12] was > 100 µM.
O=C(NC1C=Nc2ccccc2NC1=O)c1ccccc1Cl (stereo not given) was tested, and the TGI [1] was > 100 µM, the TGI [2] was > 100 µM and the TGI [3] was > 100 µM. For the same compound, the TGI [4] was > 100 µM, the TGI [5] was > 100 µM and the TGI [6] was > 100 µM. For the same compound, the TGI [7] was > 100 µM, the TGI [8] was 52.7 µM and the TGI [9] was > 100 µM. For the same compound, the TGI [10] was > 100 µM, the TGI [11] was > 100 µM and the TGI [12] was > 100 µM.
In the case of O=C(CC(=O)C1CCOC1=O)C(=O)Nc1ccc(Cl)cc1 (stereo not given), the TGI [1] is reported as > 100 µM, the TGI [2] is reported as > 100 µM and the TGI [3] is reported as > 100 µM. For the same compound, the TGI [4] was > 100 µM, the TGI [5] was > 100 µM and the TGI [6] was > 100 µM. For the same compound, the TGI [7] was > 100 µM, the TGI [8] was > 100 µM and the TGI [9] was > 100 µM. For the same compound, the TGI [10] was > 100 µM, the TGI [11] was > 100 µM and the TGI [12] was > 100 µM.
